According to paper PMC12680861, “Comparative analysis of LJ-4378 and tirzepatide in mouse models of obesity and weight regain” (Archives of Pharmacal Research, 2025):

How the values were obtained:
Plasma stability assay [1] = format: in vitro ADME, rat; conditions: 37 °C, 30 min
Protocol: (§1) The plasma stability of LJ-4378 was evaluated using 100% plasma obtained from human (Biochemed, BC22089NCP, sodium citrate), rat (Innovative, IRT-N, sodium citrate), and mouse (Biochemed, 029-APSC-MP, sodium citrate). 10 Μm of LJ-4378 was added to the plasma, and samples were incubated at 37 °C for 0, 30, and 120 min. At each time point, an aliquot of the plasma was removed and mixed with acetonitrile containing the internal standard, chlorpropamide (TRC, C424800). […] The supernatant was injected into the LC–MS/MS system for quantification of the remaining compound. Analysis was performed using a Nexera XR system (Shimadzu, Japan) with a TSQ Vantage mass spectrometer (Thermo, USA). […] Data acquisition was conducted in MRM mode using Xcalibur software (version 4.4). All experiments were performed in duplicate with a deviation within 15%, and the percentage of compound remaining (% Remaining) at each time point was calculated relative to the non-incubated control sample. For quality control, procaine and enalapril (each at 10 μM) were used as reference compounds and were confirmed to fall within acceptable ranges.

[2] = Steady state tissue partition coefficient after I.V. infusion; format: in vivo, SD rats
Protocol: In this study, steady state tissue partition coefficients ( KP,T , i.e., the ratio of tissue to plasma concentrations in steady state) Eq. (1) were determined for LJ-4378 in SD rats. […] Therefore, to ensure a steady state condition, rats received I.V. infusion (i.e., infusion solution, 5% DMSO in normal saline; delivery rate, 10 µL/min; infusion rate, 0.31 µg/µL; total dose of LJ-4378, 0.837 mg per rat) for 270 min (i.e., the time exceeding five times the half-life). Blood samples (~ 150 µL) were collected from the animal at every 10 min from 240 to 270 min for the confirmation of the steady state of the compound. At completion of the last blood collection, rats were sacrificed by decapitation, and four representative tissues (i.e., gonadal adipose, brain, lung, and liver) were harvested. Tissues were then washed four times with ice-Dulbecco’s phosphate-buffered saline (DPBS), weighed, and homogenized in two volumes of DPBS using an Ultra Turrax homogenizer (IKA, Staufen, Germany). Aliquots (50 µL) of plasma and tissue homogenate were mixed with 200 µL ice-cold acetonitrile containing propranolol (100 ng/mL, internal standard). After vortex mixing for 10 min, the mixture was centrifuged at 16,100 × g for 5 min at 4 °C, and 10 µL of the supernatant was injected directly onto the HPLC–MS/MS system. The concentration of LJ-4378 in the biological sample was quantified on an Agilent 1200 HPLC coupled to an API 3200 mass spectrometer with a Phenomenex Luna C18(2) column (3 µm, 100 Å, 50 × 2 mm). Chromatography was performed under isocratic conditions with 80% acetonitrile containing 0.1% formic acid (mobile phase A) and 20% water containing 0.1% formic acid (mobile phase B) at a flow rate of 0.4 mL/min.
(§2) When calculating KP,T for LJ-4378 in […], Eq. (1) was used:1 KP,T=CT,ss/Cp,ss where CT,ss and Cp,ss represented the tissue and plasma concentrations at 270 min after the initiation of LJ-4378 infusion. In addition, under the free-drug hypothesis, the KP,T can be expressed as the ratio of the unbound fractions in plasma ( fup ) and tissue ( fu,T ) [Eq. (2)]. Given similar interspecies values of tissue unbound fraction (Poulin and Theil [2000]), the rat KP,T values were extrapolated to those in mice and humans using the following Eq. (3):2 KP,T=fup/fu,T 3 KP,T,extrapolated=KP,T,rat×fup/fup,rat

plasma protein [3] = experiment: Plasma protein binding, Rapid Equilibrium Dialysis (RED); format: in vitro ADME, human; conditions: 10 μM, 37 °C, 4 h
Protocol: (§3) The plasma protein binding of LJ-4378 was evaluated using the Rapid Equilibrium Dialysis (RED) method with 100% plasma from human (Biochemed, BC22089NCP), rat (Innovative, IRT-N), and mouse (Biochemed, 029-APSC-MP), all treated with sodium citrate as an anticoagulant. The RED device (ThermoFisher Scientific, #89809) and reusable base plate (ThermoFisher Scientific, #89811) were used with an 8 K MWCO membrane. Test compounds were added to plasma at a final concentration of 10 μM and dialyzed against phosphate-buffered saline (PBS, pH 7.4; Hyclone, #SH30256.01) at 37 °C for 4 h. After incubation, equal volumes of plasma and PBS samples were mixed with blank PBS and blank plasma, respectively, followed by the addition of acetonitrile containing chlorpropamide (TRC, C424800) as the internal standard. […] All measurements were performed in duplicate with a deviation of less than 15% between replicates. The free fraction (% Free) was calculated as (concentration in buffer chamber/concentration in plasma chamber) × 100, and the bound fraction (% Bound) was obtained by subtracting % Free from 100. In cases where measurements were unstable, deviations greater than 15% were allowed.

[4] = Tissue partition coefficient extrapolated from rat via plasma unbound fractions
Protocol: as §2

plasma protein [5] = experiment: Plasma protein binding, Rapid Equilibrium Dialysis (RED); format: in vitro ADME, mouse; conditions: 10 μM, 37 °C, 4 h
Protocol: as §3

Plasma stability assay [6] = format: in vitro ADME, mouse; conditions: 37 °C, 30 min
Protocol: as §1

Plasma stability assay [7] = format: in vitro ADME, human; conditions: 37 °C, 30 min
Protocol: as §1

[8] = design: method as in Jastreboff et al. [2022]; Sattar et al. [2022]; conditions: over 72 weeks; ref Jastreboff et al. [2022]; Sattar et al. [2022]; cited from earlier work
[9] = SD rats (observed), I.V. infusion 270 min

Compound | % Remaining compound, Rat plasma 30 min (Plasma stability assay [1]) [%] | Steady state tissue partition coefficient (KP,T), Adipose [2, 9] | Steady state tissue partition coefficient (KP,T), Liver [2, 9] | Steady state tissue partition coefficient (KP,T), Lungs [2, 9] | partitioning in adipose tissue relative to brain ([2]; SD rats, steady state) | Plasma free fraction (% Free), Human (plasma protein [3]) [%] | Steady state tissue partition coefficient (KP,T), Adipose ([4]; Humans (extrapolated)) | Steady state tissue partition coefficient (KP,T), Brain ([4]; Humans (extrapolated)) | Steady state tissue partition coefficient (KP,T), Liver ([4]; Humans (extrapolated)) | Steady state tissue partition coefficient (KP,T), Lungs ([4]; Humans (extrapolated)) | Steady state tissue partition coefficient (KP,T), Adipose ([4]; Mice (extrapolated)) | Steady state tissue partition coefficient (KP,T), Brain ([4]; Mice (extrapolated)) | Steady state tissue partition coefficient (KP,T), Liver ([4]; Mice (extrapolated)) | Steady state tissue partition coefficient (KP,T), Lungs ([4]; Mice (extrapolated)) | Plasma free fraction (% Free), Mouse (plasma protein [5]) [%] | % Remaining compound, Mouse plasma 30 min (Plasma stability assay [6]) [%] | % Remaining compound, Human plasma 30 min (Plasma stability assay [7]) [%] | weight reductions in clinical studies [8]
CCCCC#Cc1nc(N)c2ncn([C@@H]3SC[C@@H](O)[C@H]3O)c2n1 [LJ-4378] | > 100 | 0.0843 ± 0.00653 | 0.440 ± 0.194 | 0.228 ± 0.0793 | over four-fold higher partitioning | 30.1 | 0.200 | 0.0443 | 1.04 | 0.540 | 0.197 | 0.0437 | 1.03 | 0.533 | 12.7 | 98.4 | 97.0 | 
Tirzepatide [TZP, reference compound] |  |  |  |  |  |  |  |  |  |  |  |  |  |  |  |  |  | up to 22.5%
